# Patent US20210179620A1, “MESOIONIC I[…] AND DERIVATIVES FOR COMBATING ANIMAL PESTS” (BASF SE, priority 2017, published 2021)
# What was measured:
# [1] = test system: green peach aphid (Myzus persicae); assay: Green peach aphid systemic test, artificial diet in 96-well microtiter plates; assay type: in vivo; settings: 72 h, adult aphids on treated artificial diet, 3 days, read-out: mortality in comparison with untreated controls
# From the text: Green Peach Aphid (Myzus persicae):
# For evaluating control of green peach aphid (Myzus persicae) through systemic means the test unit consisted of 96-well-microtiter plates containing liquid artificial diet under an artificial membrane.
# The compounds were formulated using a solution containing 75% v/v water and 25% v/v DMSO. Different concentrations of formulated compounds were pipetted into the 30 aphid diet, using a custom built pipetter, at two replications.
# After application, 5-8 adult aphids were placed on the artificial membrane inside the microtiter plate wells. The aphids were then allowed to suck on the treated aphid diet and incubated at about 23˜1° C. and about 50˜5% relative humidity for 3 days. Aphid mortality and fecundity was then visually assessed.
# [2] = test system: vetch aphid (Megoura viciae); assay: Vetch aphid contact or systemic test, broad bean leaf disks in 24-well microtiter plates; assay type: in vivo; settings: foliar, 120 h, sprayed broad bean leaf disks, adult aphids, 5 days, read-out: mortality in comparison with untreated controls
# Experimental: Vetch Aphid (Megoura viciae):
# For evaluating control of vetch aphid (Megoura viciae) through contact or systemic means the test unit consisted of 24-well-microtiter plates containing broad bean leaf disks.
# The compounds were formulated using a solution containing 75% v/v water and 25% v/v DMSO. Different concentrations of formulated compounds were sprayed onto the leaf disks at 2.5 μl, using a custom built micro atomizer, at two replications. After application, the leaf disks were air-dried and 5-8 adult aphids placed on the leaf disks inside the microtiter plate wells. The aphids were then allowed to suck on the treated leaf disks and incubated at about 23+1° C. and about 50+5% relative humidity for 5 days. Aphid mortality and fecundity was then visually assessed.
smiles,measurement,setting,value
"Cn1c(C(=O)CCl)c([O-])[n+]2c1SCC2c1cnc(Cl)s1 (centres unmarked) [C-1, 6-(2-chloroacetyl)-3-(2-chlorothiazol-5-yl)-7-methyl-2,3-dihydroimidazo[2,1-b]thiazol-4-ium-5-olate]",mortality at 2500 ppm,[1],> 75%
same,mortality at 2500 ppm,[2],> 75%
